From US9078902B2, “Triazine derivatives and their therapeutical applications” (NantBioScience, Inc., priority 2010, dated 2015)

Assays:
Format in all cases: biochemical
c-Src kinase = molecular target: T1, c-Src kinase (Homo sapiens, UniProt P12931); assay: c-Src kinase assay (KinaseProfiler / Kinase Hotspot); conditions: read-out: % Inhibition cSrc
T1 construct: purchased Millipore (KinaseProfiler Service); also Reaction Biology Corp. (Kinase HotSpot)
Description: (§1) This example illustrated c-Src kinase, Aurora-A kinase, Flt3 kinase, Ret kinase and TrkA Kinase Assays of selected Compounds from this invention (referred to Daniele Fancelli et al, J. Med. Chem., 2006, 49 (24), pp 7247-7251). The KinaseProfiler™ Service Assay Protocols (Millipore) were used to test the kinase inhibiting activity of novel compounds from this invention. To do this, the buffer composition was as: 20 mM MOPS, 1 mM EDTA, 0.01% Brij-35, 5% Glycerol, 0.1% p-mercaptoethanol, 1 mg/mL BSA. Test compounds were initially dissolved in DMSO at the desired concentration, then serially diluted to the kinase assay buffer. In a final reaction volume of […], Aurora-A(h) (5-10 mU) is incubated with 8 mM MOPS pH 7.0, 0.2 mM EDTA, […] LRRASLG (Kemptide), 10 mM MgAcetate and [y33P-ATP]. The reaction was initiated by the addition of the MgATP mix. After incubation for 40 minute at room temperature, the reaction was stopped by addition of […] of a 3% phosphoric acid solution. […] of the reaction was then spotted onto a P30 filtermat and washed three times for 5 minutes in 50 mM phosphoric acid and once in methanol prior to drying and scintillation counting. Wells containing substrate but no kinase and wells containing a phosphopeptide control were used to set 0% and 100% phosphorylation value, repectively.
(§2) Also Kinase Hotspot SM kinase assay was used to test the compounds for IC50 or % inhibitions (Reaction Biology Corp.). Inhibitor IC50 values were determined by titration of compound at the optimal kinase concentration (Kinase EC50).

Aurora-A kinase = molecular target: T2, Aurora-A kinase (Homo sapiens, UniProt O14965); assay: Aurora-A kinase assay (KinaseProfiler / Kinase Hotspot); conditions: read-out: % Inhibition Auroro-A
T2 construct: purchased Millipore (KinaseProfiler Service); also Reaction Biology Corp. (Kinase HotSpot)
T2 sequence (O14965 1-403): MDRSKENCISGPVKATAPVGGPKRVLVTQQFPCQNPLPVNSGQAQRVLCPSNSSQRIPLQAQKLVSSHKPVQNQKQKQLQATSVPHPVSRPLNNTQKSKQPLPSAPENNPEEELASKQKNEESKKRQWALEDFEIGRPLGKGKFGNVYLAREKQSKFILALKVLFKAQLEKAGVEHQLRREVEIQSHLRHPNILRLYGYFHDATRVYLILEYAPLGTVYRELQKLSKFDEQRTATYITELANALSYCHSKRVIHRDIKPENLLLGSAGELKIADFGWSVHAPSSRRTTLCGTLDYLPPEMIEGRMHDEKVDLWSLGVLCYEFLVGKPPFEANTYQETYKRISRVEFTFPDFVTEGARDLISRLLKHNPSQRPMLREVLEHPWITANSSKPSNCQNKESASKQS
Description: as §1, §2

Flt3 kinase = molecular target: T3, Flt3 kinase (Homo sapiens, UniProt P36888); assay: Flt3 kinase assay (KinaseProfiler / Kinase Hotspot)
T3 construct: purchased Millipore (KinaseProfiler Service); also Reaction Biology Corp. (Kinase HotSpot)
T3 sequence (P36888 27-993): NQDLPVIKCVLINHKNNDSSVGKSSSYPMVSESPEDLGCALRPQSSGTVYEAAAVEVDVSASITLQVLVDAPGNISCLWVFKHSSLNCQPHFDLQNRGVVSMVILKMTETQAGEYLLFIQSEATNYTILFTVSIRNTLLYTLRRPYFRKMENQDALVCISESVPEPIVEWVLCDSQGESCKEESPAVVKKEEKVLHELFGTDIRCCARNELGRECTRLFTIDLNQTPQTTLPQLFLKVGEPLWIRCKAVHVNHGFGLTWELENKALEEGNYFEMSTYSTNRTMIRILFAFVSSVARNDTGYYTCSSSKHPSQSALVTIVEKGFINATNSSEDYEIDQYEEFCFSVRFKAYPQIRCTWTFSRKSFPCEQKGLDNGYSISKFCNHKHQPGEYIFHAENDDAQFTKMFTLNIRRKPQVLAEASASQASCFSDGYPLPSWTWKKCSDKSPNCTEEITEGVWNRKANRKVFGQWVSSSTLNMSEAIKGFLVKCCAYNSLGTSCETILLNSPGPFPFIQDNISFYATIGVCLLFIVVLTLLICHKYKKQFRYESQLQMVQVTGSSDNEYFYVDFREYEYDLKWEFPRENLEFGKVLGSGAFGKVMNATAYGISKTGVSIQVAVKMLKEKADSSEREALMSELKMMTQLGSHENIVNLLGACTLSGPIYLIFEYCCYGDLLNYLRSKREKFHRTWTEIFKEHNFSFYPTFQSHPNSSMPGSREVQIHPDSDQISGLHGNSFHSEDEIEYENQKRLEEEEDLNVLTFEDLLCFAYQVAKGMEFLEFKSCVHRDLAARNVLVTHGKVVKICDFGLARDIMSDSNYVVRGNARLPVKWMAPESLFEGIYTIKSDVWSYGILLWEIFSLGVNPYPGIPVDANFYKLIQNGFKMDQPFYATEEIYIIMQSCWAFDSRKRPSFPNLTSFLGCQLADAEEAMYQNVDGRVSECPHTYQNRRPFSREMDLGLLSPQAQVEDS
Description: as §1, §2

Ret kinase = molecular target: T4, Ret kinase (Homo sapiens, UniProt P07949); assay: Ret kinase assay (KinaseProfiler / Kinase Hotspot)
T4 construct: purchased Millipore (KinaseProfiler Service); also Reaction Biology Corp. (Kinase HotSpot)
Description: as §1, §2

TrkA Kinase = molecular target: T5, TrkA Kinase (Homo sapiens, UniProt P04629); assay: TrkA kinase assay (KinaseProfiler / Kinase Hotspot)
T5 construct: purchased Millipore (KinaseProfiler Service); also Reaction Biology Corp. (Kinase HotSpot)
Description: as §1, §2

T4 sequence (P07949 29-1114): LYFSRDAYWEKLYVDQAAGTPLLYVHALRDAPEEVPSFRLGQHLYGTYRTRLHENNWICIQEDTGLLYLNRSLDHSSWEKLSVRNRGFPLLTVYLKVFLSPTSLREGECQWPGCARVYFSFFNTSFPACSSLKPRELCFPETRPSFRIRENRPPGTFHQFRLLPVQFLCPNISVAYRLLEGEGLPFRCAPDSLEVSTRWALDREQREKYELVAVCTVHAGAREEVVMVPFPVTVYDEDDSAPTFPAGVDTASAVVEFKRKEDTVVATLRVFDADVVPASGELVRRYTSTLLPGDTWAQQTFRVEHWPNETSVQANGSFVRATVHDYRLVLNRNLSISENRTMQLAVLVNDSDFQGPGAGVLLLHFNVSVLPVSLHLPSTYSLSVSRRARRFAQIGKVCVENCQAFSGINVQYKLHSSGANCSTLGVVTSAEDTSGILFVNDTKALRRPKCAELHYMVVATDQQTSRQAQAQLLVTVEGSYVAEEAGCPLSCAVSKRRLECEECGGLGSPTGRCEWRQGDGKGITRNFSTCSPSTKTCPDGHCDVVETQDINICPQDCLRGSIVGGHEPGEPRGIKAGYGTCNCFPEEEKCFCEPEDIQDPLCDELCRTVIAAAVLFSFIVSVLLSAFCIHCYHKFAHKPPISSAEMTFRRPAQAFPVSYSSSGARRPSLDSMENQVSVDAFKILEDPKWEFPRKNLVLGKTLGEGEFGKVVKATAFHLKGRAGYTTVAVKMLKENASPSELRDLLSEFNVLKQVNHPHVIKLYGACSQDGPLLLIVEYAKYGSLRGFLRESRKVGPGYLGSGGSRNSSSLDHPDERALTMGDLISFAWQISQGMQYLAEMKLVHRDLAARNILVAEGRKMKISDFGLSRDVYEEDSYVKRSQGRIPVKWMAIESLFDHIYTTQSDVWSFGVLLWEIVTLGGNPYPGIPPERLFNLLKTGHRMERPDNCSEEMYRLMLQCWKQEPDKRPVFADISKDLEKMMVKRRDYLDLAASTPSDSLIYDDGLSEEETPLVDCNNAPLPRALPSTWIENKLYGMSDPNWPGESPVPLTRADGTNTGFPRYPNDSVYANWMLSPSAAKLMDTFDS
T5 sequence (P04629 33-796): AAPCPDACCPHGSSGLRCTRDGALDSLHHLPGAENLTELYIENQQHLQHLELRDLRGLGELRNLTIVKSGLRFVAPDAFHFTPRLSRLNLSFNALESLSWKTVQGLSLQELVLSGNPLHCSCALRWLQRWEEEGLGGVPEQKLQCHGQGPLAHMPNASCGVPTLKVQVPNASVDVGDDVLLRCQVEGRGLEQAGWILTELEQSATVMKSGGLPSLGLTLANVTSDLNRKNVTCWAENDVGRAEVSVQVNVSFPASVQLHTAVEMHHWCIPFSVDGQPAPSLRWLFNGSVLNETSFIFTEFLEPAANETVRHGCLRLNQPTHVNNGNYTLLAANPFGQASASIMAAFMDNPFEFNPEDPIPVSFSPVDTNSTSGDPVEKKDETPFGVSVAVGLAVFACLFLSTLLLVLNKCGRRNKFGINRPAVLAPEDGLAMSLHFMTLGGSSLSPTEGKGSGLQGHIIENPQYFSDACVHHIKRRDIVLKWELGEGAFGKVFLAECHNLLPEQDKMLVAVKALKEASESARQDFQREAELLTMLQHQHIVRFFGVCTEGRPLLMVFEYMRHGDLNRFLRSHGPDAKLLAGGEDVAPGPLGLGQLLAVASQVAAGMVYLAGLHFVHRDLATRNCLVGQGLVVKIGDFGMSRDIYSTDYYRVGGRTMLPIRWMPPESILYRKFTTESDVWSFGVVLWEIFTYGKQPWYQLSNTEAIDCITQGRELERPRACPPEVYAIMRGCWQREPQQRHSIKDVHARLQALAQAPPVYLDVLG
T1 sequence (P12931 whole entry): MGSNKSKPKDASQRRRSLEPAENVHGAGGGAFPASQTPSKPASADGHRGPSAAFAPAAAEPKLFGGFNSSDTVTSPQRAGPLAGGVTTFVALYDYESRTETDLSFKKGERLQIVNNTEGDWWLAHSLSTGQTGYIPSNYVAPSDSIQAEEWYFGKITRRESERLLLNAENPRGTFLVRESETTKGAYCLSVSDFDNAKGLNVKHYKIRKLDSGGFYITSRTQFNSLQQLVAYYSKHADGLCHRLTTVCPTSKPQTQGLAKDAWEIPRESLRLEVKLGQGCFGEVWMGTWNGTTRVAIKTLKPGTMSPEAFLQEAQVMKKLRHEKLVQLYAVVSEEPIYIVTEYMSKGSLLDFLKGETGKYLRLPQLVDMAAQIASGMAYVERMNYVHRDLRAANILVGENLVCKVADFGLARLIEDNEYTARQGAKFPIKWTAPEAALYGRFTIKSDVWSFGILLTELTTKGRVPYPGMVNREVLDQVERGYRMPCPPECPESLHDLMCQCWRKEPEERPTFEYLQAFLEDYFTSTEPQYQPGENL

inhibition at 1 µM (c-Src kinase) [%] | inhibition at 1 µM (Aurora-A kinase) [%] | inhibition at 1 µM (Flt3 kinase) [%] | inhibition at 1 µM (Ret kinase) [%] | inhibition at 1 µM (TrkA Kinase) [%] | Compound
< 50 | 50 to 90 |  | > 90 | > 90 | CN1CCN(c2nc(Nc3cc(-c4ccco4)[nH]n3)nc(Sc3ccccc3)n2)CC1 [Example 9]
< 50 | 50 to 90 |  | > 90 | > 90 | CN1CCN(c2nc(Nc3cc(-c4ccco4)[nH]n3)nc(Sc3ccc(N)cc3)n2)CC1 [Example 10]
50 to 90 | 50 to 90 |  | > 90 | > 90 | CN1CCN(c2nc(Nc3cc(-c4ccco4)[nH]n3)nc(Sc3ccc(O)cc3)n2)CC1 [Example 15]
< 50 | 50 to 90 | > 90 | 50 to 90 | > 90 | CN1CCN(c2nc(Nc3cc(-c4ccco4)[nH]n3)nc(Sc3ccc(Cl)cc3)n2)CC1 [Example 16]
< 50 | 50 to 90 |  | 50 to 90 | > 90 | CN1CCN(c2nc(Nc3cc(-c4ccco4)[nH]n3)nc(Sc3cccc(Cl)c3)n2)CC1 [Example 17]
< 50 | 50 to 90 |  | 50 to 90 | > 90 | CN1CCN(c2nc(Nc3cc(-c4ccco4)[nH]n3)nc(Sc3ccccc3Cl)n2)CC1 [Example 18]
< 50 | 50 to 90 |  | 50 to 90 |  | CN1CCN(c2nc(Nc3cc(-c4ccco4)[nH]n3)nc(Sc3ccc(Cl)c(Cl)c3)n2)CC1 [Example 23]
50 to 90 | 50 to 90 |  | > 90 | > 90 | COc1ccc(Sc2nc(Nc3cc(-c4ccco4)[nH]n3)nc(N3CCN(C)CC3)n2)cc1 [Example 24]

Second part, the molecule before the results:

Compound | inhibition at 1 µM (c-Src kinase) [%] | inhibition at 1 µM (Aurora-A kinase) [%] | inhibition at 1 µM (Flt3 kinase) [%] | inhibition at 1 µM (Ret kinase) [%] | inhibition at 1 µM (TrkA Kinase) [%]
CN1CCN(c2nc(Nc3cc(-c4ccco4)[nH]n3)nc(Sc3ccc(NC(=O)C4CC4)cc3)n2)CC1 [Example 5] | < 50 | 50 to 90 | > 90 | 50 to 90 | > 90
CN1CCN(c2nc(Nc3cc(-c4cccs4)[nH]n3)nc(Sc3ccc(NC(=O)C4CC4)cc3)n2)CC1 [Example 6] | < 50 | 50 to 90 |  | > 90 | > 90
CCc1nc(Nc2cc(-c3ccco3)[nH]n2)nc(Sc2ccc(NC(=O)C3CC3)cc2)n1 [Example 8] | < 50 | < 50 |  | 50 to 90 | 50 to 90
CN1CCN(c2nc(Nc3ncc(-c4ccccc4)s3)nc(Sc3ccccc3)n2)CC1 [Example 14] | < 50 | < 50 |  | < 50 | > 90
CN1CCN(c2nc(Nc3cc(-c4ccco4)[nH]n3)nc(Sc3ccc(C(F)(F)F)cc3)n2)CC1 [Example 19] | < 50 | 50 to 90 |  | 50 to 90 | > 90
CN1CCN(c2nc(Nc3ccccc3)nc(Nc3cc(-c4ccco4)[nH]n3)n2)CC1 [Example 20] | 50 to 90 | 50 to 90 |  | > 90 | 
CN1CCN(c2nc(Nc3ncc(-c4cccs4)s3)nc(Sc3ccccc3)n2)CC1 [Example 21] | < 50 | < 50 | < 50 | < 50 | < 50
CN1CCN(c2nc(Nc3cc(-c4ccco4)[nH]n3)nc(Sc3cc(Cl)cc(Cl)c3)n2)CC1 [Example 22] | < 50 | 50 to 90 |  | 50 to 90 | > 90
CN1CCN(c2nc(Nc3cc(-c4ccco4)[nH]n3)nc(Sc3ccc(OC(F)(F)F)cc3)n2)CC1 [Example 25] | < 50 | < 50 |  | < 50 | > 90
CN1CCN(c2nc(Nc3cc(-c4ccco4)[nH]n3)nc(Oc3ccccc3)n2)CC1 [Example 26] | 50 to 90 | 50 to 90 |  | > 90 | > 90
CN1CCN(c2nc(Nc3cc(-c4ccco4)[nH]n3)nc(N(C)c3ccccc3)n2)CC1 [Example 27] | 50 to 90 | 50 to 90 |  | > 90 | > 90
CN1CCN(c2nc(Nc3cc(-c4ccccc4)[nH]n3)nc(Sc3ccc(NC(=O)C4CC4)cc3)n2)CC1 [Example 28] | < 50 | < 50 |  | > 90 | > 90
CN1CCN(c2nc(Nc3cc(-c4ccco4)[nH]n3)nc(Sc3cccc(NC(=O)C4CC4)c3)n2)CC1 [Example 30] | 50 to 90 | < 50 |  | > 90 | > 90
CN1CCN(c2nc(Nc3ncc(-c4cccs4)s3)nc(Sc3cccc(NC(=O)C4CC4)c3)n2)CC1 [Example 31] | < 50 | < 50 |  | < 50 | < 50
